Assay: Water solubility
Type: physicochemical

water solubility: superior water solubility
Structure (SMILES): NC(=O)c1ccc(C(=O)NOCc2ccc(Sc3ccc(N)cc3)c(C(F)(F)F)c2)cc1 [compound 11p]

— article PMC10935062 (Acta Pharmaceutica Sinica. B, 2023)
